The record followed here is patent publication US9695154B2, “Heteroaryl inhibitors of sumo activating enzyme” (MILLENNIUM PHARMACEUTICALS, INC., priority 2013, dated 2017).

The target in the test is T1, recombinant human SAE enzyme (Homo sapiens, UniProt Q9UBT2).
T1 sequence (Q9UBT2 1-640): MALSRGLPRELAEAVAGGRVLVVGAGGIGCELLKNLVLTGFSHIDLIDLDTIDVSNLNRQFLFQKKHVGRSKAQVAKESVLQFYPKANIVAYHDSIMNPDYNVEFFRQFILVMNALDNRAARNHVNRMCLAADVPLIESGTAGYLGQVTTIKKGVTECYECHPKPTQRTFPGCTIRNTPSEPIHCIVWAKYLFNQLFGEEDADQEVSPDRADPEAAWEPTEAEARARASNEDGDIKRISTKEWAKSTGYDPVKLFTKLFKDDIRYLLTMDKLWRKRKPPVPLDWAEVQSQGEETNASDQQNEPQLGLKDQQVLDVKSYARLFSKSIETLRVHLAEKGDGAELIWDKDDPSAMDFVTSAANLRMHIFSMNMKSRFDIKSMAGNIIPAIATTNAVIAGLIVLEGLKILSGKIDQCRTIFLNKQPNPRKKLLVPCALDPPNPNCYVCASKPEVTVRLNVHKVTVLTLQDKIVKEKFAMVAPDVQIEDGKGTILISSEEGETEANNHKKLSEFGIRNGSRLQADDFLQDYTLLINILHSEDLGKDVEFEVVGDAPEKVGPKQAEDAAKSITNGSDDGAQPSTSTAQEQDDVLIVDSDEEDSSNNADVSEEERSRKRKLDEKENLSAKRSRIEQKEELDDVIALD
T1 sequence (Q9UBE0 1-346 partner): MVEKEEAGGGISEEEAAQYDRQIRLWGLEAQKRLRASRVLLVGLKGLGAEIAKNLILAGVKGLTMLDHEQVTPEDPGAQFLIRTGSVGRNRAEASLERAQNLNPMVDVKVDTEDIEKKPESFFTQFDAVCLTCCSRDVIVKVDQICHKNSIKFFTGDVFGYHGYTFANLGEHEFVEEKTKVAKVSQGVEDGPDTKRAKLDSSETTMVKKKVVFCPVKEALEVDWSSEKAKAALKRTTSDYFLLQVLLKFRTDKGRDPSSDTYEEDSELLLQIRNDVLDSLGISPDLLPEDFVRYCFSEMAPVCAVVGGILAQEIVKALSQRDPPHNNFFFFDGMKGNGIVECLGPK
The experiment in a line: SAE HTRF Enzyme Assay. It is filed as biochemical. To be noted: for IC50: class symbols A-C; for inhibition at 0.111 µM / Percent Inhibition: compound concentration 0.111 μM; for inhibition at 0.111 µM: read-out: Percent Inhibition; for Percent Inhibition: 0.111 µM. Here is the method: The SAE enzymatic reaction totals 50 μl and contains 50 mM HEPES Hemisodium (pH 7.5), 0.05% BSA, 5 mM MgCl2, 0.5 μM ATP, 250 μM GSH, 0.01 μM Ubc9-GST, 0.125 μM Sumo-Flag and 0.11 nM recombinant human SAE enzyme. The enzymatic reaction mixture with and without inhibitor, Is incubated at 24° C. for 105 min in a 384-well plate before termination with […] of Stop/Detection buffer (0.1M HEPES Hemisodium pH 7.5, 0.05% Tween20, 20 mM EDTA, 410 mM KF, 0.53 nM Europium-Cryptate labeled monoclonal anti-Flag M2 Antibody (CisBio International) and 8.125 μg/ml PHYCOLINK goat anti-GST allophycocyanin (XL-APC) antibody (Prozyme)). After incubation for 2 hours at 24° C., quantification of FRET is performed on the Pherostar™ (BMG Labtech). Percentage inhibition values at a single concentration or enzyme inhibition (IC50) values are determined from those curves. One skilled in the art will appreciate that the values generated either as percentage inhibition at a single concentration or IC50 values are subject to experimental variation.

Consider `NS(=O)(=O)OC[C@H]1C[C@@H](Nc2ncncc2C(=O)c2ccn(Cc3c(F)c(F)c(F)c(F)c3F)n2)[C@H](O)[C@@H]1O` [Compound I-318, {(1R,2R,3S,4R)-2,3-dihydroxy-4-[(5-{[1-(pentafluorobenzyl)-1H-pyrazol-3-yl]carbonyl}pyrimidin-4-yl)amino]cyclopentyl}methyl sulfamate], for which the IC50 was less than 10 nM and the inhibition at 0.111 µM turned out to be 95%.
With `NS(=O)(=O)NC[C@H]1C[C@@H](Nc2ncncc2C(=O)c2ccn(Cc3cccc(Cl)c3)n2)[C@H](O)[C@@H]1O` [Compound I-136, N-({(1R,2R,3S,4R)-4-[(5-{[1-(3-Chlorobenzyl)-1H-pyrazol-3-yl]carbonyl}pyrimidin-4-yl)amino]-2,3-dihydroxycyclopentyl}methyl)sulfuric diamide], the IC50 fell in the range of 10 to 100 nM and the inhibition at 0.111 µM turned out to be 88%.
As for `NS(=O)(=O)OC[C@H]1C[C@@H](Nc2ncncc2C(=O)c2ccn(Cc3ccc4ccccc4c3)n2)[C@H](O)[C@@H]1O` [Compound I-103, {(1R,2R,3S,4R)-2,3-dihydroxy-4-[(5-{[1-(2-naphthylmethyl)-1H-pyrazol-3-yl]carbonyl}pyrimidin-4-yl)amino]cyclopentyl}methyl sulfamate], the IC50 is less than 10 nM and the inhibition at 0.111 µM is 97%.
With `NS(=O)(=O)CC[C@H]1C[C@@H](Nc2ncncc2C(=O)c2ccn(Cc3cccc(Br)c3)n2)C[C@@H]1O` [Compound I-38, 2-{(1R,2S,4R)-4-[(5-{[1-(3-bromobenzyl)-1H-pyrazol-3-yl]carbonyl}pyrimidin-4-yl)amino]-2-hydroxycyclopentyl}ethanesulfonamide], the IC50 lay in the range of 100 to 1000 nM and the inhibition at 0.111 µM was determined as 51%.
On to `C#Cc1cccc(Cn2ccc(C(=O)c3cncnc3N[C@@H]3C[C@H](COS(N)(=O)=O)[C@@H](O)C3)n2)c1` [Compound I-85, {(1R,2S,4R)-4-[(5-{[1-(3-ethynylbenzyl)-1H-pyrazol-3-yl]carbonyl}pyrimidin-4-yl)amino]-2-hydroxycyclopentyl}methyl sulfamate], for which the IC50 was less than 10 nM and the inhibition at 0.111 µM turned out to be 98%.
`CC(C)(C)C#CCn1ccc(C(=O)c2cncnc2N[C@@H]2C[C@H](COS(N)(=O)=O)[C@@H](O)C2)n1` [Compound I-113, {(1R,2S,4R)-4-[(5-{[1-(4,4-dimethylpent-2-yn-1-yl)-1H-pyrazol-3-yl]carbonyl}pyrimidin-4-yl)amino]-2-hydroxycyclopentyl}methyl sulfamate]: the IC50 lay within 10 to 100 nM and the inhibition at 0.111 µM was determined as 81%.
Consider `NS(=O)(=O)OC[C@H]1C[C@@H](Nc2ncncc2C(=O)c2ccn(Cc3cccc(C(F)(F)F)c3)n2)C[C@@H]1O` [Compound I-140, [(1R,2S,4R)-2-hydroxy-4-{[5-({1-[3-(trifluoromethyl)benzyl]-1H-pyrazol-3-yl}carbonyl)pyrimidin-4-yl]amino}cyclopentyl]methyl sulfamate], for which the IC50 was less than 10 nM and the inhibition at 0.111 µM is 98%.
On to `Cc1cc(C(=O)c2cncnc2N[C@@H]2C[C@H](COS(N)(=O)=O)[C@@H](O)C2)nn1Cc1cccc(I)c1` [Compound I-347, {(1R,2S,4R)-2-hydroxy-4-[(5-{[1-(3-iodobenzyl)-5-methyl-1H-pyrazol-3-yl]carbonyl}pyrimidin-4-yl)amino]cyclopentyl}methyl sulfamate], for which the IC50 was less than 10 nM and the inhibition at 0.111 µM was greater than 99%.
Regarding `CC(c1ccc(Cl)o1)n1ccc(C(=O)c2cncnc2N[C@@H]2C[C@H](COS(N)(=O)=O)[C@@H](O)C2)n1` (single isomer, unassigned) [Compound I-79, [(1R,2S,4R)-4-{[5-({1-[(1S)-1-(5-chloro-2-furyl)ethyl]-1H-pyrazol-3-yl}carbonyl)pyrimidin-4-yl]amino}-2-hydroxycyclopentyl]methyl sulfamate or [(1R,2S,4R)-4-{[5-({1-[(1R)-1-(5-chloro-2-furyl)ethyl]-1H-pyrazol-3-yl}carbonyl)pyrimidin-4-yl]amino}-2-hydroxycyclopentyl]methyl sulfamate], the IC50 was less than 10 nM and the “Percent Inhibition” value was found to be 98%.
Consider `CCC(c1cccc(Br)c1)n1ccc(C(=O)c2cncnc2N[C@@H]2C[C@H](COS(N)(=O)=O)[C@@H](O)[C@@H]2F)c1` (single isomer, unassigned) [Compound I-175, [(1R,2R,3R,4R)-4-{[5-({1-[(1S)-1-(3-bromophenyl)propyl]-1H-pyrrol-3-yl}carbonyl)pyrimidin-4-yl]amino}-3-fluoro-2-hydroxycyclopentyl]methyl sulfamate or [(1R,2R,3R,4R)-4-{[5-({1-[(1R)-1-(3-bromophenyl)propyl]-1H-pyrrol-3-yl}carbonyl)pyrimidin-4-yl]amino}-3-fluoro-2-hydroxycyclopentyl]methyl sulfamate], for which the IC50 was less than 10 nM and the inhibition at 0.111 µM came to 99%.
Consider `NS(=O)(=O)OC[C@H]1C[C@@H](Nc2ncncc2C(=O)c2ccn(Cc3ccccc3Cl)n2)[C@H](O)[C@@H]1O` [Compound I-193, ((1R,2R,3S,4R)-4-((5-(1-(2-Chlorobenzyl)-1H-pyrazole-3-carbonyl)pyrimidin-4-yl)amino)-2,3-dihydroxycyclopentyl)methyl sulfamate], for which the IC50 is less than 10 nM and the inhibition at 0.111 µM amounted to 99%.
Turning to `NS(=O)(=O)OC[C@H]1C[C@@H](Nc2ncncc2C(=O)c2ccn(Cc3ccc4nccn4c3)n2)C[C@@H]1O` [Compound I-144, {(1R,2S,4R)-2-hydroxy-4-[(5-{[1-(imidazo[1,2-a]pyridin-6-ylmethyl)-1H-pyrazol-3-yl]carbonyl}pyrimidin-4-yl)amino]cyclopentyl}methyl sulfamate], the IC50 is less than 10 nM and the inhibition at 0.111 µM came to 97%.
For `NS(=O)(=O)OC[C@H]1C[C@@H](Nc2ncncc2C(=O)c2ccn(Cc3ccc(Cl)c(Br)c3)c2)[C@@H](F)[C@@H]1O` [Compound I-337, {(1R,2R,3R,4R)-4-[(5-{[1-(3-bromo-4-chlorobenzyl)-1H-pyrrol-3-yl]carbonyl}pyrimidin-4-yl)amino]-3-fluoro-2-hydroxycyclopentyl}methyl sulfamate], the IC50 is less than 10 nM and the inhibition at 0.111 µM is 98%.
Consider `CCC(c1cccc(Br)c1)n1ccc(C(=O)c2cncnc2N[C@@H]2C[C@H](COS(N)(=O)=O)[C@@H](O)[C@@H]2F)c1` (single isomer, unassigned) [Compound I-356, [(1R,2R,3R,4R)-4-{[5-({1-[(1S)-1-(3-bromophenyl)propyl]-1H-pyrrol-3-yl}carbonyl)pyrimidin-4-yl]amino}-3-fluoro-2-hydroxycyclopentyl]methyl sulfamate or [(1R,2R,3R,4R)-4-{[5-({1-[(1R)-1-(3-bromophenyl)propyl]-1H-pyrrol-3-yl}carbonyl)pyrimidin-4-yl]amino}-3-fluoro-2-hydroxycyclopentyl]methyl sulfamate], for which the IC50 is 10 to 100 nM and the “Percent Inhibition” value is 85%.
In the case of `NS(=O)(=O)OC[C@H]1C[C@@H](Nc2ncncc2C(=O)c2ccn(Cc3cc4ccccc4o3)n2)C[C@@H]1O` [Compound I-17, {(1R,2S,4R)-4-[(5-{[1-(1-benzofuran-2-ylmethyl)-1H-pyrazol-3-yl]carbonyl}pyrimidin-4-yl)amino]-2-hydroxycyclopentyl}methyl sulfamate], the IC50 is less than 10 nM and the inhibition at 0.111 µM amounted to 99%.
The like results for `NS(=O)(=O)OC[C@H]1C[C@@H](Nc2ncncc2C(=O)c2ccn(Cc3ccc(C(F)F)o3)n2)C[C@@H]1O` [Compound I-235, [(1R,2S,4R)-4-({5-[(1-{[5-(difluoromethyl)-2-furyl]methyl}-1H-pyrazol-3-yl)carbonyl]pyrimidin-4-yl}amino)-2-hydroxycyclopentyl]methyl sulfamate] were, in that order, less than 10 nM and 100%.
